This note sets out measurements from patent EP3263567A1, “CARBOXAMIDE-SUBSTITUTED PYRAZOLES AND TRI(HETERO)ARYL-PYRAZOLES FOR USE IN METHODS OF TREATING AND / OR PREVENTING CARDIOVASCULAR DISEASES AND / OR COMORBIDITIES THEREOF” (AiCuris Anti-infective Cures GmbH, priority 2016, dated 2018).

In the assay the target is T1, human HCN4 currents (Homo sapiens, UniProt Q9Y3Q4).
T1 construct: CHO cells transiently expressing the HCN4 channel; expressed in transfected cells; host or cells: CHO (ATCC CCL-61), transiently transfected
T1 sequence (Q9Y3Q4 1-1203): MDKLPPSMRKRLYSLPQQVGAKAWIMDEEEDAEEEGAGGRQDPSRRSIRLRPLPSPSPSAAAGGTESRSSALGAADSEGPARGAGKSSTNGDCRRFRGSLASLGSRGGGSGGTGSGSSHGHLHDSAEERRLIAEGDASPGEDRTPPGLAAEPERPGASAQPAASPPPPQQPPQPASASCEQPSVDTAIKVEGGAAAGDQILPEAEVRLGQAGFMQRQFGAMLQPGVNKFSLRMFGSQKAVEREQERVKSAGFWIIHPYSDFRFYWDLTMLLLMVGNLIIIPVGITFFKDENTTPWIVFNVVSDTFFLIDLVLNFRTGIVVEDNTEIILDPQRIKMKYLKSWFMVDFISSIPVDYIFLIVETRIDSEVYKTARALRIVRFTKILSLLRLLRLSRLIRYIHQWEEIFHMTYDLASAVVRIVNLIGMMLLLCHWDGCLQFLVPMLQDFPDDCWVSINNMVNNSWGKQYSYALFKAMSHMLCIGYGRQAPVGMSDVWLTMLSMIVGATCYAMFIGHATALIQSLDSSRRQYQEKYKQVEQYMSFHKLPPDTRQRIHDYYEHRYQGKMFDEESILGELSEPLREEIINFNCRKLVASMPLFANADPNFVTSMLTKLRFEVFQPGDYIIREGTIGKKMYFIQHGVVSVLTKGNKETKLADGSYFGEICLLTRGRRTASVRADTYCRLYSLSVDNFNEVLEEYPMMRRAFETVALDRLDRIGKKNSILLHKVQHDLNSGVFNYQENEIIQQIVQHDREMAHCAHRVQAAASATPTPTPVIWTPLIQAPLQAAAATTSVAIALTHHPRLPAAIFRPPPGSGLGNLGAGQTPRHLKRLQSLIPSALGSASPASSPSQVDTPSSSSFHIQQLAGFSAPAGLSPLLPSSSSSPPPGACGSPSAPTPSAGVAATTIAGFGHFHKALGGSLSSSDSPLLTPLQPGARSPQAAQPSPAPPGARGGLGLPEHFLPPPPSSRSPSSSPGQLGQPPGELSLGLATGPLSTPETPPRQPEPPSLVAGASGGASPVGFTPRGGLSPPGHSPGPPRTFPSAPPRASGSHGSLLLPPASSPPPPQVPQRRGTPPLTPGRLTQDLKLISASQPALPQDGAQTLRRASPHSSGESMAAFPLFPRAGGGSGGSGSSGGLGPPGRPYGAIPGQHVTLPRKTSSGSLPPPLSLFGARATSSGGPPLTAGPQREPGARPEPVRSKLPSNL
In words: Whole-cell patch-clamp, HCN4 steady state currents in transiently transfected CHO cells. The class given is cell-based. The note with it: CHO cells transiently expressing HCN4, steady state current at -120 mV, n=3; read-out: IC50 (inhibition of HCN4 currents). The source says:
The following six compounds in accordance with the invention: • Compound A: [drawing 81] i.e. 4-[5-[3-Chloro-5-(trifluoromethoxy) phenyl]-1-(pyridin-3-yl)-1H-pyrazol-3-yl]-5,6-dihydro-7H-pyrrolo[3,4-d]pyrimidin-7-one, • Compound B: [drawing 82] i.e. 4-[5-[3-Chloro-5-(trifluoromethoxy) phenyl]-1-(pyridin-3-yl)-1H-pyrazol-3-yl]-2,3-dihydro-1H-pyrrolo[3,4-c] pyridin-1-one, • Compound C: [drawing 83] i.e. 4-[5-[3-Chloro-5-(trifluoromethoxy) phenyl]-1-(pyridin-3-yl)-1H-pyrazol-3-yl]-5,6-dihydro-2-methyl-7H-pyrrolo[3, 4-d] pyrimidin-7-one, • Compound D: [drawing 84] i.e. 3-Amino-4-[5-[3-chloro-5-(trifluoromethoxy) phenyl]-1-(pyridin-3-yl)-1H-pyrazol-3-yl-carbonyl]-1,5-dihydro-2H-pyrrol-2-one, • Compound E: [drawing 85] i.e. 1-[[5-[3-Chloro-5-(trifluoromethoxy) phenyl]-1-(pyridin-3-yl)-1H-pyrazol-3-yl]carbonyl]-imidazolidin-4-one, • Compound F: [drawing 86] i.e. 4-[5-[3-Chloro-5-(trifluoromethoxy) phenyl]-1-(3-cyano-4-fluoro-phenyl)-1H-pyrazol-3-yl]-5,6-dihydro-7H-pyrrolo[3,4-d]pyrimidin-7-one, were tested on their effects on human HCN4 currents recorded from transiently transfected CHO cells, in direct comparison to the reference compounds described below: • Ivabradine: [drawing 87] i.e. ((S)-3-{3-[([3,4-Dimethoxy-bicyclo [4.2.0]octa-1,3,5-trien-7-yl]methyl)methylamino]propyl}-1,3,4,5-tetrahydro-7,8-dimethoxy-2H-3-benzazepin-2-on), • Compound X: [drawing 88] i.e. 1-[[1-(3-Chloro-4-fluorophenyl)-5-(3-chloro-5-fluorophenyl)-1 H-pyrazol-3-yl]carbonyl]-imidazolidin-4-one, • Compound Y: [drawing 89] i.e. N-(2-Amino-2-oxoethyl)-1-(3-chloro-4-fluorophenyl)-5-(3-chloro-5-fluorophenyl)-1H-pyrazole-3-carboxamide.
The pyrazole compounds X and Y as depicted above, and having structural similarities to the compounds of general formula (I) of the invention, were also tested to investigate whether the pure If current inhibitory effect of the compounds of the invention also extend to structurally closely related compounds.
Dependent on their solubility in the assay buffer, the compounds were tested first at one concentration of 10 µM (compound A, compound Y, compound X, compound B, compound E, compound F and ivabradine) or 1 µM for (compound C and D). If the current blocking of HCN4 at this concentration was higher than 50% the compounds were tested again at five concentrations of a half-logarithmic dilution series starting with either 10 µM or 1 µM as mentioned above (meaning 0.1 µM, 0.3 µM, 1 µM, 3 µM, and 10 µM or 0.01 µM, 0.03 µM 0.1 µM, 0.3 µM and 1 µM).
Test system: CHO cells transiently expressing the HCN4 channel; NCBI Reference Sequence: NP005468.1 (HCN4 channel); Source CHO: ATCC, CCL-61 LGC Standards GmbH, Wesel, Germany were used.
In 35 mm culture dishes CHO cells were seeded at a density allowing single cells to be recorded on the dish holder of the microscope and continuously perfused (at approximately 1 mL/min) with the bath solution described above. All solutions applied to cells including the pipette solution were maintained at room temperature (19 °C - 30 °C). After formation of a Gigaohm seal between the patch electrodes and individual cells (pipette resistance range: 2.0 MΩ - 7.0 MΩ; seal resistance range: > 1 GΩ) the cell membrane across the pipette tip was ruptured to assure electrical access to the cell interior (whole-cell patch-configuration). As soon as a stable seal was established, steady state currents were measured upon the hyperpolarization to -120 mV (2000 ms) from a holding potential of -40 mV. This voltage protocol (as shown in the scheme below) did run 5 times for control conditions and at least ten times for each test concentration. Pulse intervals were 20 s (0.05 Hz). If current amplitude was judged to be too low for measurement, another cell was recorded.
Once control recordings have been accomplished, cells were continuously perfused with bath solution containing the tested compounds as detailed above, 0.1 % DMSO or 100 µM ZD7288. […]
A general note: The patch-clamp technique gives a direct electrical read-out from membranes.

Regarding `O=C1NCc2c1ncnc2-c1cc(-c2cc(Cl)cc(OC(F)(F)F)c2)n(-c2cccnc2)n1` [Compound A, 4-[5-[3-Chloro-5-(trifluoromethoxy)phenyl]-1-(pyridin-3-yl)-1H-pyrazol-3-yl]-5,6-dihydro-7H-pyrrolo[3,4-d]pyrimidin-7-one], the IC50 (commonly the concentration that inhibits the measured activity by half) lay within 0.03 to 0.58 µM.
